Experimental data as given in US12257237B2 (priority 2017, dated 2025).

Tested on: DD013 dedifferentiated liposarcoma
Assay: Antitumour activity in DD013 dedifferentiated liposarcoma xenograft model
Type: in vivo, Athymic nude mice
Details: for optimal T/C: day 50
Description: Experiments were performed with female Athymic nude mice, 9-10 weeks old obtained from Harlan Laboratories (Udine, Italy). They were maintained under Specific Pathogen Free conditions with constant temperature and humidity, according to the institutional guidelines.
Tumour growth mice was monitored two/three times a week (depending on tumour growth rate, to avoid unnecessary stress to the animals) by Vernier caliper. Mice were sacrificed when tumour reached a mean weight of 2±0.5 gr. The antitumour activity will be expressed as T/C %, where T and C were the mean tumour weight of treated and control groups, respectively. Mice were monitored daily and weighted at least two times a week. Tolerability was evaluated on the basis of body weight loss (BWL) and clinical observation.
Statistical analysis was performed with GraphPad Prism version 6.01 software (GraphPad software, Inc., La Jolla, CA, USA). ANOVA test was performed to evaluate if there were statistically significant differences between treated and control groups.
Briefly, xenografts were obtained by transplanting 3-4 mm tumour fragments s.c. in the flanks of mice. The growing tumour masses were measured with the aid of a Vernier caliper, and the tumour weights (TW, 1 mm^3=1 mg) were calculated by the formula: length×(width) 2/2. When tumour load achieved about 200-400 mg, mice were randomized into the experimental groups.

Cn1c(CCCCCCC(=O)NO)nc2cc(N(CCCl)CCCl)ccc21 [EDO-S101, 7-(5-(bis(2-chloroethyl)amino)-1-methyl-1H-benzo[d]imidazol-2-yl)-N-hydroxyheptanamide]
optimal T/C (40 mg/kg i.v. q7dx3): 27.2%
effect on tumour growth (40 mg/kg q7dx3, first cycle): reduced tumour growth, but without a complete arrest
effect of second cycle on tumour growth (40 mg/kg, second cycle from day 50): promoted tumour growth arrest
optimal T/C (60 mg/kg i.v. q7dx3): 14%
effect on tumour growth (60 mg/kg, first cycle): induced tumour growth arrest
effect of second cycle on tumour growth (60 mg/kg, second cycle from day 72): sustained tumour growth arrest
optimal T/C (80 mg/kg i.v. single dose): 18%
effect on tumour growth (80 mg/kg, first cycle): induced tumour growth arrest
effect of second cycle on tumour growth (80 mg/kg, second cycle from day 58): Tumour growth arrest was also observed
DD0113 tumour weight, Mean (EDO40: EDO-S101 40 mg/kg q7dx3, day 23 from inoculum): 198.6 mg
DD0113 tumour weight, Mean (EDO40: EDO-S101 40 mg/kg q7dx3, day 26 from inoculum): 283.6 mg
DD0113 tumour weight, Mean (EDO40: EDO-S101 40 mg/kg q7dx3, day 29 from inoculum): 319.2 mg
DD0113 tumour weight, Mean (EDO40: EDO-S101 40 mg/kg q7dx3, day 33 from inoculum): 394.4 mg
DD0113 tumour weight, Mean (EDO40: EDO-S101 40 mg/kg q7dx3, day 36 from inoculum): 380.3 mg
DD0113 tumour weight, Mean (EDO40: EDO-S101 40 mg/kg q7dx3, day 40 from inoculum): 433.4 mg
DD0113 tumour weight, Mean (EDO40: EDO-S101 40 mg/kg q7dx3, day 43 from inoculum): 451.3 mg
DD0113 tumour weight, Mean (EDO40: EDO-S101 40 mg/kg q7dx3, day 47 from inoculum): 507.4 mg
DD0113 tumour weight, Mean (EDO40: EDO-S101 40 mg/kg q7dx3, day 50 from inoculum): 570.5 mg
DD0113 tumour weight, Mean (EDO40: EDO-S101 40 mg/kg q7dx3, day 54 from inoculum): 599.5 mg
DD0113 tumour weight, Mean (EDO40: EDO-S101 40 mg/kg q7dx3, day 58 from inoculum): 584.1 mg
DD0113 tumour weight, Mean (EDO40: EDO-S101 40 mg/kg q7dx3, day 62 from inoculum): 677.9 mg
DD0113 tumour weight, Mean (EDO40: EDO-S101 40 mg/kg q7dx3, day 65 from inoculum): 677.8 mg
DD0113 tumour weight, Mean (EDO40: EDO-S101 40 mg/kg q7dx3, day 69 from inoculum): 703.2 mg
DD0113 tumour weight, Mean (EDO40: EDO-S101 40 mg/kg q7dx3, day 72 from inoculum): 669.8 mg
DD0113 tumour weight, Mean (EDO40: EDO-S101 40 mg/kg q7dx3, day 75 from inoculum): 666.1 mg
DD0113 tumour weight, Mean (EDO40: EDO-S101 40 mg/kg q7dx3, day 79 from inoculum): 756.8 mg
DD0113 tumour weight, Mean (EDO40: EDO-S101 40 mg/kg q7dx3, day 83 from inoculum): 683.9 mg
DD0113 tumour weight, Mean (EDO40: EDO-S101 40 mg/kg q7dx3, day 87 from inoculum): 935.9 mg
DD0113 tumour weight, Mean (EDO40: EDO-S101 40 mg/kg q7dx3, day 90 from inoculum): 1022.8 mg
DD0113 tumour weight, Mean (EDO40: EDO-S101 40 mg/kg q7dx3, day 94 from inoculum): 1226.5 mg
DD0113 tumour weight, Mean (EDO40: EDO-S101 40 mg/kg q7dx3, day 98 from inoculum): 1338.0 mg
DD0113 tumour weight, Mean (EDO40: EDO-S101 40 mg/kg q7dx3, day 100 from inoculum): 1553.1 mg
DD0113 tumour weight, Mean (EDO60: EDO-S101 60 mg/kg q7dx3, day 23 from inoculum): 199.2 mg
DD0113 tumour weight, Mean (EDO60: EDO-S101 60 mg/kg q7dx3, day 26 from inoculum): 272.5 mg
DD0113 tumour weight, Mean (EDO60: EDO-S101 60 mg/kg q7dx3, day 29 from inoculum): 310.4 mg
DD0113 tumour weight, Mean (EDO60: EDO-S101 60 mg/kg q7dx3, day 33 from inoculum): 373.1 mg
DD0113 tumour weight, Mean (EDO60: EDO-S101 60 mg/kg q7dx3, day 36 from inoculum): 334.2 mg
DD0113 tumour weight, Mean (EDO60: EDO-S101 60 mg/kg q7dx3, day 40 from inoculum): 371.2 mg
DD0113 tumour weight, Mean (EDO60: EDO-S101 60 mg/kg q7dx3, day 43 from inoculum): 339.5 mg
DD0113 tumour weight, Mean (EDO60: EDO-S101 60 mg/kg q7dx3, day 47 from inoculum): 330.2 mg
DD0113 tumour weight, Mean (EDO60: EDO-S101 60 mg/kg q7dx3, day 50 from inoculum): 310.9 mg
DD0113 tumour weight, Mean (EDO60: EDO-S101 60 mg/kg q7dx3, day 54 from inoculum): 321.1 mg
DD0113 tumour weight, Mean (EDO60: EDO-S101 60 mg/kg q7dx3, day 58 from inoculum): 303.3 mg
DD0113 tumour weight, Mean (EDO60: EDO-S101 60 mg/kg q7dx3, day 62 from inoculum): 298.3 mg
DD0113 tumour weight, Mean (EDO60: EDO-S101 60 mg/kg q7dx3, day 65 from inoculum): 291.6 mg
DD0113 tumour weight, Mean (EDO60: EDO-S101 60 mg/kg q7dx3, day 69 from inoculum): 334.6 mg
DD0113 tumour weight, Mean (EDO60: EDO-S101 60 mg/kg q7dx3, day 72 from inoculum): 423.7 mg
DD0113 tumour weight, Mean (EDO60: EDO-S101 60 mg/kg q7dx3, day 75 from inoculum): 432.9 mg
DD0113 tumour weight, Mean (EDO60: EDO-S101 60 mg/kg q7dx3, day 79 from inoculum): 475.7 mg
DD0113 tumour weight, Mean (EDO60: EDO-S101 60 mg/kg q7dx3, day 83 from inoculum): 376.9 mg
